Data as given in patent US20240261418A1, “SOS1 DEGRADING AGENT AND PREPARATION METHOD THEREFOR AND APPLICATION THEREOF” (SHANGHAI LEADINGTAC PHARMACEUTICAL CO. LTD., priority 2021, published 2024).

Test system: KRAS G12C mutant human non-small cell lung cancer cells NCI-H358
Assay: 3D cell proliferation inhibition assay, NCI-H358
Type: cell-based
Conditions: NCI-H358, 168 h, 7 days, CTG
Description: Test Example 4: 3D Cell Proliferation Inhibition Assay
The inhibitory effect of the compounds on the proliferation of 3D cells was investigated on KRAS G12C mutant human non-small cell lung cancer cells NCI-H358 (ATCC or Stem Cell Bank, Chinese Academy of Sciences), KRAS G12D mutant human metastatic pancreatic adenocarcinoma cells AsPC-1 (ATCC), KRAS G12V mutant human lung adenocarcinoma cells NCI-H441 (ATCC), and KRAS G13D mutant human colorectal adenocarcinoma epithelial cells DLD-1 (ATCC). The specific procedures were as follows:
200 nL of compound solution diluted in a gradient was added to corresponding microwells of a 384-well low-adsorption microwell plate (Corning, 3657) using an Echo sonic pipetting system (Labcyte, Echo 550), so that the final concentration of the test compound in the reaction system was in a range of 20000 nM-0.008 nM. Then 40 μL of cells at a certain density were added to the corresponding microplate. In addition to test wells for the test compounds, both a DMSO control well and a medium control well were set, with the DMSO control well containing DMSO and cells and the medium well containing only medium. […] The plate was incubated at room temperature for 30 min and read on a microplate reader EnVision using the chemiluminescence program. […]

IC50 [nM]	Structure (SMILES)
≤ 15	COc1cc2nc(C)nc(N[C@H](C)c3cc(-c4c(Cl)cccc4CN(C)C)cs3)c2cc1[C@H]1CC[C@H](C(=O)N2CCN(CC3CCC4(CC3)CCN(C(=O)c3ccc(Cl)c(N5CCC(=O)NC5=O)c3)CC4)CC2)CC1 [Example 1, 1-(2-chloro-5-(9-((4-((1R,4R)-4-(4-(((R)-1-(4-(2-chloro-6-((dimethylamino)methyl)phenyl)thien-2-yl)ethyl)amino)-7-methoxy-2-methylquinazolin-6-yl)cyclohexane-1-carbonyl)piperazin-1-yl)methyl)-3-azaspiro[5.5]undecane-3-carbonyl)phenyl)dihydropyrimidine-2,4(1H,3H)-dione]
≤ 15	COc1cc2nc(C)nc(N[C@H](C)c3cc(-c4c(Cl)cccc4CN(C)C)cs3)c2cc1[C@H]1CC[C@H](C(=O)N2CCC(CCOCC3CCN(C(=O)c4ccc(Cl)c(N5CCC(=O)NC5=O)c4)CC3)CC2)CC1 [Example 5, 1-(2-chloro-5-(4-((2-(1-((1R,4R)-4-(4-(((R)-1-(4-(2-chloro-6-((dimethylamino)methyl)phenyl)thien-2-yl)ethyl)amino)-7-methoxy-2-methylquinazolin-6-yl)cyclohexane-1-carbonyl)piperidin-4-yl)ethoxy)methyl)piperidine-1-carbonyl)phenyl)dihydropyrimidine-2,4(1H,3H)-dione]
